# Source: the supplement of paper PMC10307832
# Compound: CC(C)(C)c1nc(-c2cccc(NS(=O)(=O)c3c(F)cccc3F)c2F)c(-c2ccnc(N)n2)s1 [Dabrafenib] + Nc1nc2[nH]cc(CCc3ccc(C(=O)N[C@@H](CCC(=O)O)C(=O)O)cc3)c2c(=O)[nH]1 [Pemetrexed] (partner 0.2 µM)
# Experiment: relative viability (nuclei count vs DMSO), 5 days (fraction); higher = more cells survive
# Details: first compound 0.003 µM
# Method in brief: (§1)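 Medians of duplicate plates are given as relative viability. That measure is the nuclei count in treated wells divided by the count in vehicle wells. Counts were taken on 4× images of lung cancer cell lines in 1536-well plates, 5 days after pin-tool dosing the day after seeding with one drug alone or a fixed anchor-drug dose plus five library-drug doses (not always all listed) in √10 steps.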
row,Cell Line,relative viability
1,CAL-12T,1.21
2,NCI-H1944,0.569
3,NCI-H2085,0.707
4,NCI-H2228,0.342
5,NCI-H2170,0.274
6,UMC-11,0.761
7,LCLC-103H,0.473
8,HCC-827,0.224
9,COR-L 105,1
10,NCI-H2126,0.624
11,NCI-H647,0.187
12,HCC-44,0.61
13,NCI-H1651,0.575
14,NCI-H1755,0.36
15,HOP-62,0.253
16,NCI-H1650,0.364
17,ChaGo-K-1,0.219
18,A-427,0.891
19,NCI-H1648,0.746
20,HCC-15,0.221
21,LU99A,0.25
22,NCI-H2342,0.751
23,NCI-H1563,0.667
24,LK-2,0.249
25,NCI-H358,0.169

# Same assay, conditions: first compound 0.009487 µM
row,Cell Line,relative viability
1,CAL-12T,1.44
2,NCI-H1944,0.58
3,NCI-H2085,1.05
4,NCI-H2228,0.415
5,NCI-H441,0.232
6,NCI-H522,1.08
7,EMC-BAC-2,0.401
8,NCI-H2170,0.265
9,UMC-11,0.806
10,NCI-H650,0.938
11,LCLC-103H,0.455
12,NCI-H596,0.492
13,HCC-827,0.288
14,COR-L 105,1.2
15,NCI-H2126,0.808
16,NCI-H647,0.186
17,LOU-NH91,0.34
18,HCC-78,0.935
19,HCC-44,0.58

row,Cell Line,relative viability
1,NCI-H1651,0.555
2,NCI-H1755,0.427
3,HOP-62,0.255
4,PC-14,0.135
5,NCI-H1650,0.391
6,ChaGo-K-1,0.256
7,A-427,1.04
8,NCI-H1355,1.09
9,NCI-H1648,0.781
10,NCI-H1792,1.03
11,HCC-15,0.225
12,LU99A,0.192
13,NCI-H1793,1.08
14,NCI-H2342,0.779
15,NCI-H1563,0.836
16,LK-2,0.239
17,NCI-H358,0.166
18,NCI-H1395,0.813
19,SK-MES-1,0.952

# Same assay, conditions: first compound 0.03 µM
row,Cell Line,relative viability
1,CAL-12T,1.18
2,NCI-H1944,0.587
3,NCI-H2085,0.861
4,NCI-H2228,0.357
5,NCI-H441,0.255
6,NCI-H522,0.833
7,EMC-BAC-2,0.392
8,NCI-H2170,0.26
9,UMC-11,0.727
10,NCI-H650,0.846
11,LCLC-103H,0.532
12,NCI-H596,0.44
13,HCC-827,0.243
14,COR-L 105,0.799
15,NCI-H2126,0.623
16,NCI-H647,0.167
17,LOU-NH91,0.403
18,HCC-78,0.91

row,Cell Line,relative viability
1,HCC-44,0.697
2,NCI-H1651,0.525
3,NCI-H1755,0.395
4,HOP-62,0.286
5,PC-14,0.133
6,NCI-H1650,0.389
7,ChaGo-K-1,0.263
8,A-427,0.828
9,NCI-H1355,0.965
10,NCI-H1792,0.622
11,HCC-15,0.227
12,LU99A,0.181
13,NCI-H2342,0.747
14,NCI-H1563,0.591
15,NCI-H358,0.152
16,NCI-H1395,0.907
17,SK-MES-1,0.915

# Same assay, conditions: first compound 0.09487 µM
row,Cell Line,relative viability
1,CAL-12T,1.08
2,NCI-H1944,0.444
3,NCI-H2085,0.864
4,NCI-H2228,0.332
5,NCI-H441,0.259
6,NCI-H522,1.07
7,EMC-BAC-2,0.32
8,NCI-H2170,0.252
9,UMC-11,0.822
10,NCI-H650,0.522
11,LCLC-103H,0.42
12,NCI-H596,0.579
13,COR-L 105,1.19
14,NCI-H2126,0.706
15,NCI-H647,0.159
16,LOU-NH91,0.409
17,HCC-78,0.879
18,HCC-44,0.598
19,NCI-H1651,0.416

row,Cell Line,relative viability
1,NCI-H1755,0.47
2,HOP-62,0.273
3,PC-14,0.125
4,NCI-H1650,0.389
5,ChaGo-K-1,0.246
6,A-427,0.803
7,NCI-H1355,0.804
8,NCI-H1648,0.654
9,NCI-H1792,0.723
10,HCC-15,0.212
11,LU99A,0.161
12,NCI-H1793,0.911
13,NCI-H2342,0.765
14,NCI-H1563,0.822
15,LK-2,0.253
16,NCI-H358,0.209
17,NCI-H1395,0.749
18,SK-MES-1,0.86

# Same assay, conditions: first compound 0.3 µM
row,Cell Line,relative viability
1,CAL-12T,1.14
2,NCI-H1944,0.668
3,NCI-H2085,1.08
4,NCI-H2228,0.321
5,NCI-H441,0.263
6,NCI-H522,0.989
7,EMC-BAC-2,0.377
8,NCI-H2170,0.282
9,UMC-11,0.871
10,NCI-H650,0.464
11,LCLC-103H,0.4
12,NCI-H596,0.469
13,HCC-827,0.281
14,COR-L 105,1.29
15,NCI-H2126,0.756
16,NCI-H647,0.16
17,LOU-NH91,0.409
18,HCC-78,0.795
19,HCC-44,0.651

row,Cell Line,relative viability
1,NCI-H1651,0.613
2,NCI-H1755,0.424
3,HOP-62,0.25
4,PC-14,0.154
5,NCI-H1650,0.419
6,ChaGo-K-1,0.26
7,A-427,0.987
8,NCI-H1355,1.08
9,NCI-H1648,0.738
10,NCI-H1792,0.525
11,HCC-15,0.215
12,LU99A,0.183
13,NCI-H1793,1.17
14,NCI-H2342,0.858
15,NCI-H1563,0.744
16,LK-2,0.301
17,NCI-H358,0.163
18,NCI-H1395,0.806
19,SK-MES-1,0.742

# Compound: NC(=O)c1ccc(N(C(N)=O)c2c(F)cccc2F)nc1-c1ccc(F)cc1F [VX-702] + CC(C)C[C@H](NC(=O)[C@H](Cc1ccccc1)NC(=O)c1cnccn1)B(O)O [Bortezomib] (partner 0.002 µM)
# Experiment: as above
# Details: first compound 0.02 µM
# Method in brief: as §1
row,Cell Line,relative viability
1,ABC-1,0.35
2,CAL-12T,1.02
3,NCI-H2085,1.08
4,IA-LM,0.787
5,NCI-H2228,1.02
6,NCI-H441,0.641
7,EMC-BAC-2,1.11
8,NCI-H1703,0.286
9,UMC-11,0.717
10,NCI-H650,0.802
11,LCLC-103H,1.17
12,NCI-H596,1.2
13,HCC-827,0.966
14,COR-L 105,0.957
15,NCI-H1299,1.09
16,NCI-H2126,1.11
17,NCI-H647,1.14
18,LOU-NH91,0.507

row,Cell Line,relative viability
1,HCC-78,0.314
2,HCC-44,0.909
3,NCI-H1651,0.958
4,NCI-H1755,0.964
5,HOP-62,0.67
6,PC-14,0.888
7,NCI-H1650,0.195
8,ChaGo-K-1,0.911
9,A-427,0.984
10,NCI-H1355,1.26
11,NCI-H1792,0.863
12,HCC-15,1.07
13,LU99A,1.09
14,Calu-6,1.04
15,NCI-H1563,0.812
16,NCI-H727,0.657
17,EBC-1,0.622

# Same assay, conditions: first compound 0.2 µM
row,Cell Line,relative viability
1,CAL-12T,0.928
2,NCI-H2085,1.06
3,IA-LM,0.796
4,NCI-H2228,0.917
5,NCI-H441,0.463
6,EMC-BAC-2,1.04
7,NCI-H1703,0.37
8,UMC-11,0.666
9,LCLC-103H,0.949
10,NCI-H596,0.963
11,HCC-827,1.03
12,COR-L 105,0.888
13,NCI-H1299,1.03
14,NCI-H2126,1.06
15,NCI-H647,0.84
16,LOU-NH91,0.502
17,HCC-78,0.521

row,Cell Line,relative viability
1,HCC-44,0.856
2,NCI-H1651,0.96
3,NCI-H1755,0.911
4,HOP-62,0.566
5,PC-14,0.852
6,NCI-H1650,0.207
7,ChaGo-K-1,0.861
8,A-427,0.947
9,NCI-H1355,1.22
10,NCI-H1792,0.978
11,HCC-15,0.929
12,LU99A,1.05
13,Calu-6,1.12
14,NCI-H1563,0.891
15,NCI-H727,0.743
16,EBC-1,0.545

# Same assay, conditions: first compound 0.6325 µM
row,Cell Line,relative viability
1,ABC-1,0.26
2,CAL-12T,0.885
3,NCI-H2085,1.03
4,IA-LM,0.872
5,NCI-H2228,1.31
6,NCI-H441,0.492
7,EMC-BAC-2,1.04
8,NCI-H1703,0.255
9,UMC-11,0.689
10,NCI-H650,1.05
11,LCLC-103H,1.05
12,NCI-H596,0.962
13,HCC-827,0.997
14,COR-L 105,0.907
15,NCI-H1299,1.12
16,NCI-H2126,1.11
17,NCI-H647,1.25
18,LOU-NH91,0.513

row,Cell Line,relative viability
1,HCC-78,0.472
2,HCC-44,0.845
3,NCI-H1651,0.95
4,NCI-H1755,1.07
5,HOP-62,0.696
6,PC-14,0.854
7,NCI-H1650,0.189
8,ChaGo-K-1,1.06
9,A-427,0.988
10,NCI-H1355,1.27
11,NCI-H1792,0.966
12,HCC-15,1.09
13,LU99A,1.14
14,Calu-6,1.24
15,NCI-H1563,0.918
16,NCI-H727,0.939
17,EBC-1,0.587

# Same assay, conditions: first compound 2 µM
row,Cell Line,relative viability
1,ABC-1,0.329
2,CAL-12T,1.06
3,NCI-H2085,1
4,IA-LM,0.919
5,NCI-H2228,1.04
6,NCI-H441,0.575
7,EMC-BAC-2,1.09
8,NCI-H1703,0.289
9,UMC-11,0.827
10,NCI-H650,1.07
11,LCLC-103H,1.11
12,NCI-H596,1.25
13,HCC-827,0.541
14,COR-L 105,0.54
15,NCI-H1299,1.09
16,NCI-H2126,1.25
17,NCI-H647,1.41
18,LOU-NH91,0.532

row,Cell Line,relative viability
1,HCC-78,0.506
2,HCC-44,0.992
3,NCI-H1651,1.03
4,NCI-H1755,0.979
5,HOP-62,0.653
6,PC-14,0.991
7,NCI-H1650,0.185
8,ChaGo-K-1,1.22
9,A-427,1.05
10,NCI-H1355,1.26
11,NCI-H1792,1.21
12,HCC-15,1.05
13,LU99A,0.934
14,Calu-6,1.16
15,NCI-H1563,0.616
16,NCI-H727,0.976
17,EBC-1,0.603
